Laboratory results as given in US20050008684A1, “Method of treatment for acne, rosacea and ulcers with taurolidine and/or taurultam in a pharmaceutical composition” (priority 2003, published 2005).

Tests used:
[1] = system: impetiginous atopical eczema on the hands and feet; assay: case treatment of atopic eczema, topical; type: in vivo, human; conditions: same patient, before taurolidine treatment
Method: The patient was released with a prescription to apply Triclosan in a Dermatop-base cream upon need. The pustules were treated with methylrosaniline chloride solution. […] Further treatments included application of Dermatop-cream, Polyvidon-Iodine solution, crystal violet solution, and Nystatin-suspension. […] Treatment was then continued for another week at reduced frequency application such as once daily.

[2] = system: acne, inflamed lesions in the skin; assay: topical treatment of acne; type: in vivo, human
[3] = system: skin sensitization; assay: Magnusson & Kligman-Test; type: in vivo
[4] = system: Staphylococcus aureus; conditions: cited from earlier work

| Compound | condition under earlier therapy of atopical eczema [1] | local irritations and/or allergies ([2]; 2% taurolidine gel or emulsion on skin of affected patient) | side effects such as flaking, stinging and itching ([2]; 2% taurolidine gel or emulsion, topical) | reduction of inflamed lesions in the skin ([2]; hydroxyethylcellulose gel (or W/O or O/W emulsion) with 2% taurolidine, several days after application) [%] | sensitization classification [3] | minimal threshold of inhibitory concentration [4] [mg/mL] |
| --- | --- | --- | --- | --- | --- | --- |
| COCC1=C(C(=O)O)N2C(=O)[C@@H](NC(=O)/C(=N\OC)c3csc(N)n3)[C@H]2SC1 [Cefpodoxim] | improved somewhat | – | – | – | – | – |
| C[C@]12C=CC(=O)C=C1CC[C@@H]1[C@@H]2[C@@H](O)C[C@@]2(C)[C@H]1CC[C@]2(O)C(=O)CO [Prednisolon] | the atopical eczema was not completely gone | – | – | – | – | – |
| O=S1(=O)CCN(CN2CCS(=O)(=O)NC2)CN1 [taurolidine, 4,4′-methylenebis-(1,2,4-thiadiazine-1,1-dioxide)] | – | no local irritations and/or allergies could be observed | No side effects | 50 | non-sensitizing agent | 0.3 to 0.6 |
